Like-named read-outs stand apart in the source and are kept apart here. Ends that are not written are not given here.
T1: FcεRI receptor (Rattus norvegicus, UniProt P12371+P13386+P20411)
T1 construct: FcεRI receptor, which is present on surfaces of mast cells; endogenous in cells; host or cells: RBL-2H3 rat mast cell line
T1 sequence (P12371 24-245): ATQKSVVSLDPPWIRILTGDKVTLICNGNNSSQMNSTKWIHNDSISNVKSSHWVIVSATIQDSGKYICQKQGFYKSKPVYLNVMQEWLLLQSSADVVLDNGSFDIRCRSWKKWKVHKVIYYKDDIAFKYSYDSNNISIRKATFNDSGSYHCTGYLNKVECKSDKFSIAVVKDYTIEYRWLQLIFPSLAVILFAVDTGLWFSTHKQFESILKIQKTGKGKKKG
T1 sequence (P13386 1-243): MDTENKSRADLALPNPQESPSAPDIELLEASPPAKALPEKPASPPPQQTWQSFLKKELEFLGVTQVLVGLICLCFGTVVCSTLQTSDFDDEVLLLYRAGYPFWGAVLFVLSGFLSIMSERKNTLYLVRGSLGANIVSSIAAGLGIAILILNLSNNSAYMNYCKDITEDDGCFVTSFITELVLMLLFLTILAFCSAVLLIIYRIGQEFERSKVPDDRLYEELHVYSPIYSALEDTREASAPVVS
T1 sequence (P20411 19-86): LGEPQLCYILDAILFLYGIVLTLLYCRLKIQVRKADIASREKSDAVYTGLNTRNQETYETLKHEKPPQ


What was measured:
RBL-2H3 cells = assay: Histamine secretion from IgE/HSA-stimulated mast cells (histamine ELISA); assay type: cell-based, rat; details: IgE 1 μg/ml sensitized, HSA 1 μg/ml stimulated
Experimental: In the culture of RBL-2H3 cells sensitized by IgE treatment (1 μg/ml) for 16 h, the existing culture medium was removed and exchanged with a tyrode buffer. […] In addition, in order to measure the activity of beta-hexosaminidase, the degree of color development after a reaction with a substrate, p-N-acetyl-glucosamine (NAG; SIGMA, USA) was determined by measuring the absorbance at 405 nm using a spectrophotometer (see FIG. 3b).

FcεRI receptor = target: T1, FcεRI receptor; assay: Immunoprecipitation with IgE antibody and western blotting of FcεRI gamma sub-chain (receptor complex formation); assay type: cell-based; details: IgE-sensitized cells; peptide 10 μg/ml; HSA stimulation 10 min
Experimental: After the first separation using immunoprecipitation, western blotting was conducted using FcεRI gamma sub-chain antibody to confirm the protein amount of the gamma sub-chains binding to IgE (see FIG. 4c).

NIH3T3 cells = details: NIH3T3 fibroblasts; 1 and 10 μg/ml; 27 h; MTT
Experimental: (§1) Meanwhile, in order to investigate whether or not the apoptosis effect is a mast cell-specific reaction, the cytotoxicity test was conducted using HaCaT cells as keratinocytes and NIH3T3 cells as fibroblasts. The cells were placed in a 96-well plate for tissue culture at 5×10^3 cells per well, and then cultured for 24 h under conditions of 37° C. and 5% CO2. After 24 h, the medium was exchanged with the same culture liquid. A blank sample for determining a reference and the synthetic peptide were dissolved in 10% distilled water in a sterile state, followed by culturing at concentrations of 1 μg/ml and 10 μg/ml for 27 h under the same conditions as above. After the completion of the culture, the culture liquid was treated with MTT reagent (5 mg/ml; SIGMA, USA) with 1/10 volume and further cultured for 4 h, and the generated formazan was dissolved in DMSO and the absorbance was measured at 540 nm using a spectrophotometer (Molecular devices, USA) (see FIG. 2c).

HaCaT cells = details: HaCaT human keratinocytes; 1 and 10 μg/ml; 27 h; MTT
Experimental: as §1

[1] = system: RBL-2H3 rat mast cell lines; details: 10 μg/ml treatment group, 27 h
Experimental: First, RBL-2H3 rat mast cell lines (Korean Cell Line Bank, Korea) were cultured in Dulbecco's modified Eagle's medium (DMEM, Gibco, U.S.A.) supplemented with 10% fetal bovine serum (FBS, Sigma) using a flask for tissue culture (SPL, Korea). The cultured cell lines were detached from the bottom of the culture container using a 1% trypsin solution, and then only cell deposits were collected by centrifugation. The cell deposits were again suspended in DMEM culture liquid, placed in each well of a 6-well plate for tissue culture (SPL, Korea) at 1×10^5 cells per well, and then cultured for 24 h under conditions of 37° C. and 5% CO2. After 24 h, the medium was exchanged with the same culture liquid. […] After the completion of the culture, the culture supernatant fluid was removed, the cultured cell lines were detached from the bottom of the culture container using a 1% trypsin solution, and then only cell precipitates were collected by centrifugation. The cells were stained using an Annexin V-PI staining kit (BD pharmigen), and then FL1 and FL2 intensities were measured using flow cytometry, FACS. Annexin V-positive apoptotic cells were counted (see FIG. 2a).

p38 = details: IgE-sensitized cells; peptide 10 μg/ml 20 min; HSA 1 μg/ml 5 or 30 min
Experimental: (§2) The cells were placed in a 60 mm-sized plate for culture (SPL, Korea) at 1.5×10^6 cells per well, and then cultured for 24 h under conditions of 37° C. and 5% CO2. After that, the cells were treated with IgE (1 μg/ml) for 24 h for cell sensitization, and then a blank sample for determining a reference and the synthetic peptide were dissolved in 10% distilled water in a sterile state, followed by treatment with a concentration of 10 μg/ml for 20 min, and then the cells were stimulated by treatment with 1 μg/ml allergen HSA for 5 min or 30 min.

ERK1/2 = details: IgE-sensitized cells; peptide 10 μg/ml 20 min; HSA 1 μg/ml 5 or 30 min
Experimental: as §2

Bcl2 = details: 1 and 10 μg/ml, 27 h
Lyn = details: IgE-sensitized cells; peptide treatment 20 min; HSA 1 μg/ml
[2] = Thermal stability at 37° C. in phosphate buffered saline, HPLC quantification; assay type: physicochemical; details: 0.1 mg/ml in PBS, days 0-70 (FIG. 5)
Experimental: 1 ml of the prepared solution was placed in each glass vial, and allowed to stand at 37° C. The solution standing at 37° C. was sampled on days 0, 5, 10, 20, 30, 50, and 70. Centrifugation for each day was conducted to remove modified peptides or proteins, and the supernatant was taken. HPLC was used for quantification (see FIG. 5).

[3] = activated mast cells (IgE and HSA treatment)

Molecule | secretion amount of histamine (RBL-2H3 cells; positive control 40 μM) | complex formation of FcεRI receptor (gamma sub-chains binding to IgE) (FcεRI receptor) | cytotoxicity (NIH3T3 cells) | cytotoxicity (HaCaT cells) | Annexin V-positive cell count (apoptosis) [1, 3] | Annexin V-positive cell count (apoptosis) ([1]; inactivated mast cells) | phosphorylation of p38 (p38) | phosphorylation of ERK1/2 (ERK1/2) | expression level of Bcl2 (Bcl2; [3]) | expression level of Bcl2 (Bcl2; inactivated mast cells) | phosphorylation of Lyn (Lyn) | thermal stability [2] | secretion amount of histamine (RBL-2H3 cells; peptide 1 and 10 μg/ml)
O=c1c(O)c(-c2ccc(O)c(O)c2)oc2cc(O)cc(O)c12 [quercetin, reference compound] | reduces the secretion amount of histamine | – | – | – | – | – | – | – | – | – | – | – | –
WVPYQARVPYPR [peptide of the present invention] | – | significantly inhibit the complex formation | did not exhibit cytotoxicity | did not exhibit cytotoxicity | increased the Annexin V-positive cell count | increased the Annexin V-positive cell count | efficacy of inhibiting the phosphorylation | efficacy of inhibiting the phosphorylation | reduce the expression level of Bcl2 | reduce the expression level of Bcl2 | significantly inhibited in a concentration-dependent manner | very excellent thermal stability | activity to reduce the secretion amount of histamine in a concentration-dependent manner
natural semaphorin 3A protein: standard form growth factor (Semaphorin 3A) purchased from NIBSC (UK); human semaphorin 3A, SEQ ID NO: 2 (protein, listed as Homo sapiens) MGWLTRIVCLFWGVLLTARANYQNGKNNVPRLKLSYKEMLESNNVITFNGLANSSSYHTFLLDEERSRLYVGAKDHIFSFDLVNIKDFQKIVWPVSYTRRDECKWAGKDILKECANFIKVLKAYNQTHLYACGTGAFHPICTYIEIGHHPEDNIFKLENSHFENGRGKSPYDPKLLTASLLIDGELYSGTAADFMGRDFAIFRTLGHHHPIRTEQHDSRWLNDPKFISAHLISESDNPEDDKVYFFFRENAIDGEHSGKATHARIGQICKNDFGGHRSLVNKWTTFLKARLICSVPGPNGIDTHFDELQDVFLMNFKDPKNPVVYGVFTTSSNIFKGSAVCMYSMSDVRRVFLGPYAHRDGPNYQWVPYQGRVPYPRPGTCPSKTFGGFDSTKDLPDDVITFARSHPAMYNPVFPMNNRPIVIKTDVNYQFTQIVVDRVDAEDGQYDVMFIGTDVGTVLKVVSIPKETWYDLEEVLLEEMTVFREPTAISAMELSTKQQQLYIGSTAGVAQLPLHRCDIYGKACAECCLARDPYCAWDGSACSRYFPTAKRRTRRQDIRNGDPLTHCSDLHHDNHHGHSPEERIIYGVENSSTFLECSPKSQRALVYWQFQRRNEERKEEIRVDDHIIRTDQGLLLRSLQQKDSGNYLCHAVEHGFIQTLLKVTLEVIDTEHLEELLHKDDDGDGSKTKEMSNSMTPSQKVWYRDFMQLINHPNLNTMDEFCEQVWKRDRKQRRQRPGHTPGNSNKWKHLQENKKGRNRRTHEFERAPRSV | – | – | – | – | – | – | – | – | – | – | – | low stability at the time of storage for a long period of time | –

Reference: US9637519B2, “Peptide for inducing mast cell-specific apoptosis and use thereof” (CAREGEN CO., LTD., priority 2013, dated 2017)
